Converted amounts (≈) assume the structure as drawn. Read-outs that look alike come from different tables or passages of the source.
What was measured:
Assay in all cases: microbe, parasite or virus in culture
Type in all cases: cell-based
[1] = test system: B. thailandensis BtΔ2-RHA-BtPore (efflux-deficient, hyperporinated)
[2] = test system: P. aeruginosa PAO1-LAC-EcPore (hyperporinated); conditions: for MIC: Pseudomonas aeruginosa, PAO1-LAC-EcPore, at least three independent measurements, read-out: MIC; for Fold decrease of MIC (potentiation) by hyperporination: Pae: PAO1-LAC-EcPore vs parent
[3] = test system: A. baumannii AbΔ3-ARA-EcPore (efflux-deficient, hyperporinated); conditions: AbΔ3-ARA-EcPore, at least three independent measurements
[4] = test system: A. baumannii Ab-ARA (wild type, empty cassette); conditions: at least three independent measurements
[5] = test system: B. thailandensis BtΔ2-RHA (efflux-deficient)
[6] = test system: P. aeruginosa PaΔ3-LAC (efflux-deficient); conditions: Pseudomonas aeruginosa, at least three independent measurements, read-out: MIC
[7] = test system: B. cepacia Bc-RHA-BtPore (hyperporinated); conditions: for MIC: Bc-RHA-BtPore; for Fold decrease of MIC (potentiation) by hyperporination: Bc: Bc-RHA-BtPore vs parent
[8] = test system: B. thailandensis Bt-RHA (wild type, empty cassette)
[9] = test system: B. cepacia Bc-RHA (wild type, empty cassette)
[10] = test system: B. thailandensis Bt-RHA-BtPore (hyperporinated)
[11] = test system: A. baumannii Ab-ARA-EcPore (hyperporinated); conditions: for MIC: Ab-ARA-EcPore, at least three independent measurements; for Fold decrease of MIC (potentiation) by hyperporination: Abau: Ab-ARA-EcPore vs parent
[12] = test system: P. aeruginosa PaΔ3-LAC-EcPore (efflux-deficient, hyperporinated); conditions: Pseudomonas aeruginosa; PaΔ3-LAC-EcPore; at least three independent measurements; read-out: MIC
[13] = test system: A. baumannii AbΔ3-ARA (efflux-deficient); conditions: AbΔ3-ARA, at least three independent measurements
[14] = test system: P. aeruginosa PAO1-LAC (wild type, empty cassette); conditions: at least three independent measurements
[15] = Acinetobacter baumannii, read-out: MIC
[16] = Burkholderia cepacia, read-out: MIC

CC[C@H]1OC(=O)[C@H](C)[C@@H](O[C@H]2C[C@@](C)(OC)[C@@H](O)[C@H](C)O2)[C@H](C)[C@@H](O[C@@H]2O[C@H](C)C[C@H](N(C)C)[C@H]2O)[C@](C)(O)C[C@@H](C)C(=O)[C@H](C)[C@@H](O)[C@]1(C)O [Erythromycin]
MIC ([1]; Burkholderia thailandensis): 0.5 µg/mL (≈ 0.681 µM)
MIC [2]: 2 µg/mL (≈ 2.73 µM)
MIC [3, 15]: 0.08 µg/mL (≈ 0.109 µM)
MIC [4, 15]: 5 µg/mL (≈ 6.81 µM)
MIC ([5]; Burkholderia thailandensis): 1 µg/mL (≈ 1.36 µM)
MIC [6]: 16 µg/mL (≈ 21.8 µM)
MIC [7, 16]: 8 to 16 µg/mL (≈ 10.9 to 21.8 µM)
MIC ([8]; Burkholderia thailandensis): 512 µg/mL (≈ 698 µM)

NC[C@H]1O[C@H](O[C@H]2[C@H](O)[C@@H](O[C@H]3O[C@H](CO)[C@@H](O)[C@H](N)[C@H]3O)[C@H](N)C[C@@H]2N)[C@H](O)[C@@H](O)[C@@H]1O [Kanamycin]
MIC ([1]; Burkholderia thailandensis): 2 µg/mL (≈ 4.13 µM)
MIC [9, 16]: 64 µg/mL (≈ 132 µM)
MIC ([5]; Burkholderia thailandensis): 4 µg/mL (≈ 8.26 µM)
MIC ([10]; Burkholderia thailandensis): 64 µg/mL (≈ 132 µM)
MIC [7, 16]: 4 to 8 µg/mL (≈ 8.26 to 16.5 µM)
MIC ([8]; Burkholderia thailandensis): > 64 µg/mL

C[C@H]1COc2c(N3CCN(C)CC3)c(F)cc3c(=O)c(C(=O)O)cn1c23 [Levofloxacin]
MIC [11, 15]: 0.125 µg/mL (≈ 0.346 µM)
MIC [9, 16]: 2 µg/mL (≈ 5.53 µM)
MIC [2]: 0.063 µg/mL (≈ 0.174 µM)
MIC [4, 15]: 0.125 µg/mL (≈ 0.346 µM)
MIC ([10]; Burkholderia thailandensis): 1 µg/mL (≈ 2.77 µM)
MIC [7, 16]: 0.06 µg/mL (≈ 0.166 µM)
MIC ([8]; Burkholderia thailandensis): 2 µg/mL (≈ 5.53 µM)

C[C@@H](O)[C@H]1C(=O)N2C(C(=O)O)=C(S[C@@H]3CN[C@H](C(=O)N(C)C)C3)[C@H](C)[C@H]12 [Meropenem]
MIC [12]: 0.03 µg/mL (≈ 0.0782 µM)
MIC ([1]; Burkholderia thailandensis): 0.03 µg/mL (≈ 0.0782 µM)
Fold decrease of MIC (potentiation) by hyperporination [11]: 2-4 fold
MIC [11, 15]: 0.063 µg/mL (≈ 0.164 µM)
MIC [9, 16]: > 4 µg/mL
Fold decrease of MIC (potentiation) by hyperporination [2]: 2-4 fold
MIC [2]: 0.25 µg/mL (≈ 0.652 µM)
MIC [13, 15]: 0.125 µg/mL (≈ 0.326 µM)
MIC [3, 15]: 0.063 µg/mL (≈ 0.164 µM)
MIC [4, 15]: 0.25 µg/mL (≈ 0.652 µM)
MIC ([5]; Burkholderia thailandensis): 0.25 µg/mL (≈ 0.652 µM)
MIC ([10]; Burkholderia thailandensis): 1 µg/mL (≈ 2.61 µM)
MIC [6]: 0.125 µg/mL (≈ 0.326 µM)
MIC ([14]; Pseudomonas aeruginosa, read-out: MIC): 0.5 µg/mL (≈ 1.3 µM)
Fold decrease of MIC (potentiation) by hyperporination [7]: > 32 fold
MIC [7, 16]: 0.125 µg/mL (≈ 0.326 µM)
MIC ([8]; Burkholderia thailandensis): 1 µg/mL (≈ 2.61 µM)

CCn1cc(C(=O)O)c(=O)c2ccc(C)nc21 [Nalidixic acid]
MIC [12]: 2 µg/mL (≈ 8.61 µM)
MIC ([1]; Burkholderia thailandensis): 1.5 µg/mL (≈ 6.46 µM)
MIC [11, 15]: 1.5 µg/mL (≈ 6.46 µM)
MIC [9, 16]: 24 µg/mL (≈ 103 µM)
MIC [2]: 32 µg/mL (≈ 138 µM)
MIC [13, 15]: 1.5 µg/mL (≈ 6.46 µM)
MIC [3, 15]: 0.75 µg/mL (≈ 3.23 µM)
MIC [4, 15]: 3 µg/mL (≈ 12.9 µM)
MIC ([5]; Burkholderia thailandensis): 12 µg/mL (≈ 51.7 µM)
MIC ([10]; Burkholderia thailandensis): 24 µg/mL (≈ 103 µM)
MIC [6]: 8 µg/mL (≈ 34.4 µM)
MIC [7, 16]: 3 µg/mL (≈ 12.9 µM)
MIC ([8]; Burkholderia thailandensis): 48 µg/mL (≈ 207 µM)

CO[C@@H]1[C@@H](OC(N)=O)[C@@H](O)[C@H](Oc2ccc3c(O)c(NC(=O)c4ccc(O)c(CC=C(C)C)c4)c(=O)oc3c2C)OC1(C)C [Novobiocin]
MIC [12]: 4 µg/mL (≈ 6.53 µM)
MIC ([1]; Burkholderia thailandensis): 0.008 µg/mL (≈ 0.0131 µM)
Fold decrease of MIC (potentiation) by hyperporination [11]: 2 fold
MIC [11, 15]: 1.56 µg/mL (≈ 2.55 µM)
MIC [9, 16]: 8 µg/mL (≈ 13.1 µM)
Fold decrease of MIC (potentiation) by hyperporination [2]: 16-32 fold
MIC [2]: 64 µg/mL (≈ 104 µM)
MIC [13, 15]: 0.025 µg/mL (≈ 0.0408 µM)
MIC [3, 15]: 0.025 µg/mL (≈ 0.0408 µM)
MIC [4, 15]: 3.1 µg/mL (≈ 5.06 µM)
MIC ([5]; Burkholderia thailandensis): 0.25 µg/mL (≈ 0.408 µM)
Fold decrease of MIC (potentiation) by hyperporination [10]: 2 fold
MIC ([10]; Burkholderia thailandensis): 4 µg/mL (≈ 6.53 µM)
MIC [6]: 32 µg/mL (≈ 52.2 µM)
MIC [14]: 512 µg/mL (≈ 836 µM)
Fold decrease of MIC (potentiation) by hyperporination [7]: 16-32 fold
MIC [7, 16]: 0.125 µg/mL (≈ 0.204 µM)
MIC ([8]; Burkholderia thailandensis): 8 µg/mL (≈ 13.1 µM)

CO[C@H]1/C=C/O[C@@]2(C)Oc3c(C)c(O)c4c(O)c(c(/C=N/N5CCN(C)CC5)c(O)c4c3C2=O)NC(=O)/C(C)=C\C=C\[C@H](C)[C@H](O)[C@@H](C)[C@@H](O)[C@@H](C)[C@H](OC(C)=O)[C@@H]1C [Rifampin]
MIC ([1]; Burkholderia thailandensis): 0.03 µg/mL (≈ 0.0365 µM)
MIC [11, 15]: 0.5 µg/mL (≈ 0.608 µM)
MIC [9, 16]: 8 µg/mL (≈ 9.72 µM)
MIC [13, 15]: 1 µg/mL (≈ 1.22 µM)
MIC [3, 15]: 0.25 µg/mL (≈ 0.304 µM)
MIC [4, 15]: 2 µg/mL (≈ 2.43 µM)
MIC ([5]; Burkholderia thailandensis): 4 µg/mL (≈ 4.86 µM)
MIC ([10]; Burkholderia thailandensis): 8 µg/mL (≈ 9.72 µM)
MIC [7, 16]: 0.06 µg/mL (≈ 0.0729 µM)
MIC ([8]; Burkholderia thailandensis): 16 µg/mL (≈ 19.4 µM)

CN(C)[C@@H]1C(O)=C(C(N)=O)C(=O)[C@@]2(O)C(O)=C3C(=O)c4c(O)cccc4[C@@](C)(O)[C@H]3C[C@@H]12 [Tetracycline]
MIC [12]: 0.125 µg/mL (≈ 0.281 µM)
MIC ([1]; Burkholderia thailandensis): 0.06 µg/mL (≈ 0.135 µM)
MIC [11, 15]: 0.031 µg/mL (≈ 0.0698 µM)
MIC [9, 16]: > 8 µg/mL
MIC [2]: 0.5 µg/mL (≈ 1.13 µM)
MIC [13, 15]: 0.008 µg/mL (≈ 0.018 µM)
MIC [3, 15]: 0.004 µg/mL (≈ 0.009 µM)
MIC [4, 15]: 0.125 µg/mL (≈ 0.281 µM)
MIC ([5]; Burkholderia thailandensis): 0.125 µg/mL (≈ 0.281 µM)
MIC ([10]; Burkholderia thailandensis): 2 µg/mL (≈ 4.5 µM)
MIC [6]: 2 µg/mL (≈ 4.5 µM)
MIC [7, 16]: 8 µg/mL (≈ 18 µM)
MIC ([8]; Burkholderia thailandensis): 2 µg/mL (≈ 4.5 µM)

Gentamicin
MIC [1]: 2 µg/mL
MIC [11]: 4 µg/mL
MIC [9]: 128 µg/mL
MIC [13]: 8 µg/mL
MIC [3]: 8 µg/mL
MIC [4]: 4 µg/mL
MIC [5]: 4 µg/mL
MIC [10]: >64 µg/mL
MIC [7]: 16 µg/mL
MIC [8]: >64 µg/mL

— patent US11021521B2, “Pore-modified gram-negative bacteria and uses thereof” (priority 2015, dated 2021)
